# In ChEMBL document CHEMBL1153127, “p16(INK4a) Peptide mimetics identified via virtual screening” (Bioorg Med Chem Lett, 2010):
# Tests used:
# Type in all cases: protein-complex assay
# [1] = target: Cyclin-dependent kinase 4/cyclin D1 (Homo sapiens, UniProt P11802); test: Inhibition of CDK4/Cyclin D1 by FRET assay
# CDK6/cyclin D1 [2] = target: CDK6/cyclin D1 (Homo sapiens, UniProt Q00534); test: (§1) Inhibition of CDK6/Cyclin D1 by FRET assay
# CDK6/cyclin D1 [3] = target: CDK6/cyclin D1 (Homo sapiens, UniProt P24385+Q00534); test: as §1
# Chain of CDK6/cyclin D1 (Homo sapiens, UniProt P24385+Q00534) (P24385 whole entry): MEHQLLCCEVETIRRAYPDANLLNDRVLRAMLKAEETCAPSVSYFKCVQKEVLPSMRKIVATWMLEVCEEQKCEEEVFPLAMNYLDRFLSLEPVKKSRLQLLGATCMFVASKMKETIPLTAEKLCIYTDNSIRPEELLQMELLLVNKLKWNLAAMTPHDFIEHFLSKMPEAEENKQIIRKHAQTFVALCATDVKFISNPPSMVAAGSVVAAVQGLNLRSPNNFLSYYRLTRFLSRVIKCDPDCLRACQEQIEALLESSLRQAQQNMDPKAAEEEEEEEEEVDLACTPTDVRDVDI
# Chain of CDK6/cyclin D1 (Homo sapiens, UniProt P24385+Q00534) (Q00534 whole entry): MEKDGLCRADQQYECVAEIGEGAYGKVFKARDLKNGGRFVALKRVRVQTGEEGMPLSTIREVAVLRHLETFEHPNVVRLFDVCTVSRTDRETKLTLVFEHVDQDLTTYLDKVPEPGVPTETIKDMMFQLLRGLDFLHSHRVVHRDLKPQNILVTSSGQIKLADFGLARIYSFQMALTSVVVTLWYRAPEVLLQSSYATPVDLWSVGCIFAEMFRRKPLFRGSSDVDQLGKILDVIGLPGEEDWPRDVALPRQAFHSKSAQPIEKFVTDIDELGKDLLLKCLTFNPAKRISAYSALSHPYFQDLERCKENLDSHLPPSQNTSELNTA
# Chain of Cyclin-dependent kinase 4/cyclin D1 (P11802 whole entry): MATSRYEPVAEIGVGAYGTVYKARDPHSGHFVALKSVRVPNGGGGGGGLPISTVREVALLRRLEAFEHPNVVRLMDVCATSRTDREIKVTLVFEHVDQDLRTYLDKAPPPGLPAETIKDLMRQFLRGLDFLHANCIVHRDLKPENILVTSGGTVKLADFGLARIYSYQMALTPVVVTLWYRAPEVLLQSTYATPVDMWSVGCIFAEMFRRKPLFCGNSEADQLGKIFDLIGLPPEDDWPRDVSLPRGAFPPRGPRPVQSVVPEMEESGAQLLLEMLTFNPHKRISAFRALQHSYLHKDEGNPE
# Chain of Cyclin-dependent kinase 4/cyclin D1 (P24385 whole entry, further chain): as the sequence (P24385 whole entry) above
# Chain of CDK6/cyclin D1 (Homo sapiens, UniProt Q00534) (P24385 whole entry): as above
# Chain of CDK6/cyclin D1 (Homo sapiens, UniProt Q00534) (Q00534 whole entry): as the sequence (Q00534 whole entry) above
Structure (SMILES),IC50 [1] [µM],IC50 (CDK6/cyclin D1 [2]) [µM],IC50 (CDK6/cyclin D1 [3])
COc1cc(NCCCN(CCC(C)C)CCC(C)C)c2ncccc2c1,162,325,–
COc1cc(NCCN(CC(C)C)CC(C)C)c2ncc(C)cc2c1,128,–,Not Active
